The term DC50 denotes the midpoint of the concentration-degradation curve. A high value points to a less potent degrader. Broadly, the Dmax is the greatest extent of degradation seen.

The target of this assay is T1, IRAK4 (Homo sapiens, UniProt Q9NWZ3).
T1 construct: C-terminal HiBiT-tagged Jurkat cells (polyclonal cell line or clone 8D5); endogenous in cells; host or cells: Jurkat cells (polyclonal cell line or clone 8D5), HiBiT-tagged
T1 sequence (Q9NWZ3 1-460): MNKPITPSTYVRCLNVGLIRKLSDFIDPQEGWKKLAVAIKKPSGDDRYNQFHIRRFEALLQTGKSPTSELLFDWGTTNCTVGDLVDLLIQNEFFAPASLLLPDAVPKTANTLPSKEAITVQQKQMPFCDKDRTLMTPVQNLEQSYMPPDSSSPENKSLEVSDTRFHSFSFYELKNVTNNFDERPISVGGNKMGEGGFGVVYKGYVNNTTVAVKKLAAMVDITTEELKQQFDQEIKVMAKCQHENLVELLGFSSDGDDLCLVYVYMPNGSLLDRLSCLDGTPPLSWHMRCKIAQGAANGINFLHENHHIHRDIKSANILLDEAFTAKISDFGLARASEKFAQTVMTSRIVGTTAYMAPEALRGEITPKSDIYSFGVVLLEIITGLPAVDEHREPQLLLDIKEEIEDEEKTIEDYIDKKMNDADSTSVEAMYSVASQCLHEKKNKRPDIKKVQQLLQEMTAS
The assay is described as follows: IRAK4 Degradation HiBit Assay. It is filed as cell-based. As to conditions: C-terminal HiBiT-tagged Jurkat cells, 4 hrs incubation; for DC50: % IRAK4 remaining, four-parameter fit (IC50 used as DC50); for Dmax: from fit of % IRAK4 remaining, read-out: Dmax. As to the method: Compound dilution series (11-point, 3.16-fold dilutions in DMSO, columns 1-11 and 12-22) at 500× the final required concentrations were prepared in Labcyte LDV 384-well plates (cat. no. LP-0200) using a Labcyte Echo 550 Liquid Handler. The 500× solutions ranged from 5 mM to 0.5 μM (final assay concentration range 10 μM to 0.1 nM). Using the Echo, the 500× solutions were stamped into white, 384-well assay plates (Corning, cat. no. 3570) at 60 nL/well. The following assay plate controls were also stamped at 60 nL/well: DMSO in wells E23-P23 (NC, Negative Control, maximum signal), 5 mM solution control compound al in wells A23-D23 and M24-P24 (AC, Active Control, minimum signal/background, 10 μM final assay concentration), control compound al dilution series in wells […] (12-point, 4-fold dilutions). C-terminal HiBiT-tagged Jurkat cells (polyclonal cell line or clone 8D5) were plated at 1×10^6 cells/mL, 30 μL/well (3×10^4 cells/well) in complete RPMI (10% FBS, 1% L-glutamine). Cells were incubated for 4 hrs at 32° C./6% CO2. Compound al has the following structure:
Following incubation, 30 μL of complete Nano-Glo HiBiT Lytic Detection Reagent (Nano-Glo HiBiT Lytic Buffer with 1:50 Nano-Glo HiBiT Lytic Substrate and 1:100 LgBiT Protein; Promega cat. no. N3040) was added. Cells were further incubated for 10 min at room temperature (RT). Luminescence units (LU) were read on an EnVision plate reader (Perkin Elmer, 0.1 sec per well). Percent IRAK4 remaining per sample was calculated as follows: […]
Using Graphpad Prism, % IRAK4 remaining values were plotted as a function of compound concentration. To determine DC50 and Dmax values, resulting curves were fit to the Prism curve-fitting equation “log (inhibitor) vs response-Variable slope (four parameters)” (reported best fit value IC50 used as DC50). Table 1 summarizes the biological data of Compounds of Examples 1-137 and 142-145 obtained from the assays described herein.
Background: With HiBiT, luminescence reflects the tagged protein that the partner subunit can reach.

With `N#Cc1cnn2c(-c3cc(NC4CCC4)c(-c4nnc(N5CC6CCC(C5)N6CC5CCN(c6ccc([C@H]7CCC(=O)NC7=O)cn6)CC5)s4)cn3)ccc2c1` (racemic) [Example 96, rac-7-[4-(cyclobutylamino)-5-(5-{8-[(1-{5-[(3R)-2,6-dioxopiperidin-3-yl]pyridin-2-yl}piperidin-4-yl)methyl]-3,8-diazabicyclo[3.2.1]octan-3-yl}-1,3,4-thiadiazol-2-yl)pyridin-2-yl]pyrrolo[1,2-b]pyridazine-3-carbonitrile], half-maximal degradation (DC50) was put at 83 nM and the Dmax amounted to 103%.

For `CNc1cc(-c2ccc3cc(C#N)cnn23)ncc1-c1nnc(N2CCN(C3CCN(CC4CCN(c5ccc(C6CCC(=O)NC6=O)cn5)CC4)CC3)CC2)s1` (racemic) [Example 53, rac-7-{5-[5-(4-{1-[(1-{5-[(3R)-2,6-dioxopiperidin-3-yl]pyridin-2-yl}piperidin-4-yl)methyl]piperidin-4-yl}piperazin-1-yl)-1,3,4-thiadiazol-2-yl]-4-(methylamino)pyridin-2-yl}pyrrolo[1,2-b]pyridazine-3-carbonitrile], it took 64 nM to reach half-maximal degradation (DC50) and the Dmax worked out at 114%.

`N#CCNc1cc(-c2ccc3cc(C#N)cnn23)ncc1-c1nnc(N2CC3CCC(C2)N3CC2CCN(c3ccc([C@@H]4CCC(=O)NC4=O)cn3)CC2)s1` (single isomer, unassigned) [Example 133]: half-maximal degradation (DC50) was put at 13 nM and the Dmax came out at 110%.

With `N#Cc1cnn2c(-c3cc(NC4CC4)c(-c4nnc(N5CC6CCC(C5)N6CC5CCN(c6ccc(N7CCC(=O)NC7=O)cn6)CC5)s4)cn3)ccc2c1` [Example 115, 7-[4-(cyclopropylamino)-5-{5-[8-({1-[5-(2,4-dioxo-1,3-diazinan-1-yl)pyridin-2-yl]piperidin-4-yl}methyl)-3,8-diazabicyclo[3.2.1]octan-3-yl]-1,3,4-thiadiazol-2-yl}pyridin-2-yl]pyrrolo[1,2-b]pyridazine-3-carbonitrile], the DC50 was determined as 48 nM and the Dmax stood at 109%.

Turning to `N#CCNc1cc(-c2ccc3cc(C#N)cnn23)ncc1-c1nnc(N2CCN(CC3CCN(c4ccc(C5CCC(=O)NC5=O)cn4)CC3)CC2)s1` (racemic) [Example 59, rac-7-{4-[(cyanomethyl)amino]-5-(5-{4-[(1-{5-[(3R)-2,6-dioxopiperidin-3-yl]pyridin-2-yl}piperidin-4-yl)methyl]piperazin-1-yl}-1,3,4-thiadiazol-2-yl)pyridin-2-yl}pyrrolo[1,2-b]pyridazine-3-carbonitrile], it took 7 nM to reach half-maximal degradation (DC50) and the Dmax was found to be 120%.

Take `N#Cc1cnn2c(-c3cc(NC4CCOCC4)c(-c4nnc(N5CCN(CC6CCN(c7ccc(C8CCC(=O)NC8=O)c(F)c7)CC6)CC5)s4)cn3)ccc2c1` (racemic) [Example 3, rac-7-[5-(5-{4-[(1-{4-[(3R)-2,6-dioxopiperidin-3-yl]-3-fluorophenyl}piperidin-4-yl)methyl]piperazin-1-yl}-1,3,4-thiadiazol-2-yl)-4-[(oxan-4-yl)amino]pyridin-2-yl]pyrrolo[1,2-b]pyridazine-3-carbonitrile]: half-maximal degradation (DC50) was put at 55 nM and the Dmax turned out to be 93%.

Regarding `N#Cc1cnn2c(-c3cc(N[C@H]4CCOC4)c(-c4nnc(N5CCN(CC6CCN(c7ccc([C@@H]8CCC(=O)NC8=O)cn7)CC6)CC5)s4)cn3)ccc2c1` (single isomer, unassigned) [Example 130], the half-maximal degradation concentration (DC50) worked out at 22 nM and the Dmax is 112%.

Regarding `N#Cc1cnn2c(-c3cc(NC4CCOCC4)c(-c4nnc(N5CCN(C(=O)C6CCN(c7cc(C8CCC(=O)NC8=O)ccn7)CC6)CC5)s4)cn3)ccc2c1` (racemic) [Example 16, rac-7-(5-{5-[4-(1-{4-[(3R)-2,6-dioxopiperidin-3-yl]pyridin-2-yl}piperidine-4-carbonyl)piperazin-1-yl]-1,3,4-thiadiazol-2-yl}-4-[(oxan-4-yl)amino]pyridin-2-yl)pyrrolo[1,2-b]pyridazine-3-carbonitrile], the DC50 was 26 nM and the Dmax turned out to be 62%.

For `CC(C)Nc1cc(-c2ccc3cc(C#N)cnn23)ncc1-c1nnc(N2CC3CCC(C2)N3CC2CCN(c3ccc([C@H]4CCC(=O)NC4=O)cn3)CC2)s1` (racemic) [Example 2, rac-7-[5-(5-{8-[(1-{5-[(3R)-2,6-dioxopiperidin-3-yl]pyridin-2-yl}piperidin-4-yl)methyl]-3,8-diazabicyclo[3.2.1]octan-3-yl}-1,3,4-thiadiazol-2-yl)-4-[(propan-2-yl)amino]pyridin-2-yl]pyrrolo[1,2-b]pyridazine-3-carbonitrile], half-maximal degradation (DC50) was put at 53 nM and the Dmax came to 67%.

For `N#Cc1cnn2c(-c3cc(NC4CCC(F)(F)CC4)c(-c4nnc(N5CCN(CC6CCN(c7ccc(C8CCC(=O)NC8=O)cn7)CC6)CC5)s4)cn3)ccc2c1` (racemic) [Example 1, rac-7-{4-[(4,4-difluorocyclohexyl)amino]-5-(5-{4-[(1-{5-[(3R)-2,6-dioxopiperidin-3-yl]pyridin-2-yl}piperidin-4-yl)methyl]piperazin-1-yl}-1,3,4-thiadiazol-2-yl)pyridin-2-yl}pyrrolo[1,2-b]pyridazine-3-carbonitrile], the DC50 came out at 860 nM and the Dmax stood at 96%.

Take `N#Cc1cnn2c(-c3cc(NC4CCOCC4)c(-c4nnc(N5CCN(C6CC7(CCN(c8ccc(C9CCC(=O)NC9=O)cn8)CC7)C6)CC5)s4)cn3)ccc2c1` (racemic) [Example 74, rac-7-(5-{5-[4-(7-{5-[(3R)-2,6-dioxopiperidin-3-yl]pyridin-2-yl}-7-azaspiro[3.5]nonan-2-yl)piperazin-1-yl]-1,3,4-thiadiazol-2-yl}-4-[(oxan-4-yl)amino]pyridin-2-yl)pyrrolo[1,2-b]pyridazine-3-carbonitrile]: half-maximal degradation (DC50) was put at 23 nM and the Dmax was 71%.

As to `N#Cc1cnn2c(-c3cc(N[C@@H]4CCOC4)c(-c4nnc(N5CCN(CC6CCN(c7ccc([C@H]8CCC(=O)NC8=O)cn7)CC6)CC5)s4)cn3)ccc2c1` (single isomer, unassigned) [Example 137], the DC50 amounted to 104 nM and the Dmax worked out at 88%.

As for `N#Cc1cnn2c(-c3cc(NC4CCOCC4)c(-c4nnc(N5CCN(CC6CCN(C(=O)c7ccc(F)c(N8CCC(=O)NC8=O)c7)CC6)CC5)s4)cn3)ccc2c1` [Example 62, 7-(5-{5-[4-({1-[3-(2,4-dioxo-1,3-diazinan-1-yl)-4-fluorobenzoyl]piperidin-4-yl}methyl)piperazin-1-yl]-1,3,4-thiadiazol-2-yl}-4-[(oxan-4-yl)amino]pyridin-2-yl)pyrrolo[1,2-b]pyridazine-3-carbonitrile], half-maximal degradation (DC50) was put at 12 nM and the Dmax was 41%.

Regarding `N#Cc1cnn2c(-c3cc(NC4CCOCC4)c(-c4nnc(N5CCN(CC6CCN(c7ccc(N8CCC(=O)NC8=O)c(F)c7)CC6)CC5)s4)cn3)ccc2c1` [Example 8, 7-(5-{5-[4-({1-[4-(2,4-dioxo-1,3-diazinan-1-yl)-3-fluorophenyl]piperidin-4-yl}methyl)piperazin-1-yl]-1,3,4-thiadiazol-2-yl}-4-[(oxan-4-yl)amino]pyridin-2-yl)pyrrolo[1,2-b]pyridazine-3-carbonitrile], half-maximal degradation (DC50) was put at 29 nM and the Dmax amounted to 110%.

For the compound `COC[C@@H](C)Nc1cc(-c2ccc3cc(C#N)cnn23)ncc1-c1nnc(N2CC3CCC(C2)N3CC2CCN(c3ccc(C4CCC(=O)NC4=O)cn3)CC2)s1` (mixture of isomers) [Example 114, 7-[5-(5-{8-[(1-{5-[(3RS)-2,6-dioxopiperidin-3-yl]pyridin-2-yl}piperidin-4-yl)methyl]-3,8-diazabicyclo[3.2.1]octan-3-yl}-1,3,4-thiadiazol-2-yl)-4-{[(2R)-1-methoxypropan-2-yl]amino}pyridin-2-yl]pyrrolo[1,2-b]pyridazine-3-carbonitrile], the DC50 turned out to be 100 nM and the Dmax stood at 110%.
